This is an account of results in US20240041975A1, “ANTICANCER PEPTIDE AND USE THEREOF FOR INHIBITING CANCER CELL VIABILITY” (NATIONAL TSING HUA UNIVERSITY, priority 2022, published 2024).

Data set [1] deals with Human oral squamous cell carcinoma cell line C9. Nature of the data set: MTT assay cytotoxicity, C9. In kind it is cell-based. The settings on record: for activity against oral squamous cell carcinoma cell line C9 (in words): FIG. 1E; for IC50: MTT, 24 hr treatment, read-out: anticancer activity oral squamous cell carcinoma cell line C9. The method, then: (§1) Human non-small cell lung cancer line A549, PC9, and H1975 (Osimertinib sensitive; Gefitinib toleran; belonged to T790M mutations), oral squamous cell carcinoma cell line OECM-1 were cultured in RPMI medium supplemented with 10% fetal bovine serum (FBS) and antibiotic. Human oral squamous cell carcinoma cell line C9 and human diploid fibroblast (HFW) were cultured in DMEM medium supplemented with 10% fetal bovine serum (FBS) and antibiotic. Cells were cultured in a humidified incubator containing 5% CO2 at 37° C.
(§2) The cytotoxicity of cancer cells via administrating the peptides were measured by the MTT assay. All cancer cell lines were seeded in a 96-well plate at a density of 5×10^4 cells per well and incubated for 24 hr. After the medium was removed, using the anti-cancer peptides ranged from 50 μM to 0.78 μM for treatment, diluted in the growth medium, and administered 24 hr. The media was then removed, determined cell viability by incubated for 3 hours at 37 C with the addition of 100 μL Thiazolyl Blue Tetrazolium Bromide (MTT 0.5 mg/ml in PBS; M2128, Sigma-Aldrich) diluted by ratio 1:9 in the growth medium. Next, the medium with MTT solution was removed, added 100 μl Dimethyl Sulfoxide (DMSO, D4540, Sigma-Aldrich) for dissolving the formazan crystal. Cell survival rate was calculated by measuring the absorbance at 570 nm using a microplate reader (Sunrise TM, TECAN, Switzerland). Medium without peptide and mixed with H2O2 represented positive and negative control, respectively. The experiments were repeated at least three times. Cell Viability percentage was calculated as follows: […]

The subject of data set [2] is oral squamous cell carcinoma cell line OECM-1. Nature of the data set: MTT assay cytotoxicity, OECM-1. As to conditions: 24 hr treatment, read-out: anticancer activity oral squamous cell carcinoma cell line OECM-1. The data set is classed as cell-based. On the procedure: as §1, §2
(Tetrazolium dyes change colour on reduction, which living cells bring about.)

Data set [3] in a line: MTT assay cell cytotoxicity, normal cell HFW. The data set is classed as cell-based. The settings on record: human, human diploid fibroblast (HFW) cells, 24 hr treatment. The method, then:
as §1, §2

The test system of data set [4] is Human non-small cell lung cancer line PC9. Briefly: MTT assay cytotoxicity, PC9. The data set is classed as cell-based. The settings on record: 24 hr treatment, read-out: anticancer activity Human non-small cell lung cancer line PC9. On the procedure:
as §1, §2

Data set [5] concerns human lung cancer cell/cell line and oral squamous cell carcinoma cell/cell line. Briefly: MTT assay, overall anticancer spectrum. In kind it is cell-based. As to conditions: for efficiency to the human lung cancer cell line: human lung cancer cell lines, FIG. 1A-1C. On the procedure: as §1, §2
Data set [6] deals with Human non-small cell lung cancer line H1975. Nature of the data set: MTT assay cytotoxicity, H1975. In kind it is cell-based. The settings on record: 24 hr treatment, read-out: anticancer activity Human non-small cell lung cancer line H1975. On the procedure: as §1, §2
The test system of data set [7] is Human non-small cell lung cancer line A549. The data set is classed as cell-based. The settings on record: for IC50: 24 h. On the procedure:
as §1, §2

The subject of data set [8] is Human non-small cell lung cancer cell A549. Briefly: ATP release (ENLITEN ATP assay kit, luciferin-luciferase). The data set is classed as cell-based. The settings on record: 4×IC50 (6.452 μM). On the procedure: FIG. 4 depict that Detection ATP release into supernatant was detect after adminstrated with K1R12-AGP-RW. Human non-small cell lung cancer cell A549 administrated with 6.452 μM (4×IC50) of K1R12-AGP-RW for different time period (30 min, 60 min, 90 min, 120 min). Data are presented as means ±SEM, ***p<0.005, **p<0.01, versus the control group. Data of FIG. 4 were analyzed using the one-way ANOVA and multiple comparison test.
The ENLITEN ATP assay kit (Promega, Madison, WI, FF2000) was used for the detection of ATP release levels. Above all seeds, cancer cells in 96 well with 1×10^5 cell per well, incubated 24 hours. On day 2, replace the medium with the fresh medium containing 4×IC50 K1R12-AGP-RW incubated at different time points (30 min, 60 min, 90 min, 120 min). The supernatant was college and centrifuged 500 xg for 10 minutes to remove debris. Add reconstituted rL/L reagent with the sample and detection immediately, expressed as relative light units (RLU). Serially diluted ATP standard to calculating ATP concentrations generates a regression curve. All reagents in this kit must be returned to room temperature before use.

Data set [9] shares this test system. Nature of the data set: ROS release (DCFDA assay). The data set is classed as cell-based. As to conditions: 4×IC50 (6.452 μM); 120 minutes. The method, then:
FIG. 6 depict that release of ROS from cancer cells were administrated with the peptide. Human non-small cell lung cancer cell A549 administrated with 6.452 μM (4×IC50) of K1R12-AGP-RW for 120 min. The cells of control group were treated with RPMI-1640 without phenol red. Data are presented as means ±SEM, **p<0.05, versus the control group. Data of FIG. 6 were analyzed by Student's t-test.
The 2′,7′-dichlorofluorescin diacetate (DCFDA) intracellular ROS detection assay kit from Abcam (UK, ab113851) was used for measuring ROS release. Cells were seeded in a 96 well black clear bottom plate with 4×10^4 per well, culture 24 hours. Remove medium and washed once in pre-warm 1× PBS with 100 μl per well. Furthermore, cells were treated with 25 μM DCFDA in 1× buffer solution incubated for 120 minutes. Washed again with a buffer solution of 100 μL/well, before adding the 4×IC50 K1R12-AGP-RW dissolved in RPMI without phenol red, and incubated 60,120 and 240 minutes. Cells incubated with RPMI without phenol red were used as a negative control, and the positive control was tertbutyl hydroperoxide (TBHP). Using a fluorescence plate reader (VICTOR3, PerkinElmer, USA) determined at an excitation wavelength of 485 nm and an emission wavelength of 535 nm.

For data set [10] the test system is unchanged. Briefly: HMGB1 secretion by western blot. The settings on record: 4×IC50 (6.452 μM). The data set is classed as cell-based. The method, then:
FIG. 3 depict that the release level of HMGB1 was analyzed by Western Blot. Human non-small cell lung cancer cell A549 administrated with 6.452 μM (4×IC50) of K1R12-AGP-RW for different time period (60 min, 120 min, 240 min), the HMGB1 release form lysate (L) to the supernatant (S). A549 treated with medium without serum as control group.
In one embodiment, cancer cells were seeded with 5×10^5 cells/well in 6-cm polystyrene in complete medium and allowed to adhere 24 hr. Cells were treated with K1R12-AGP-IR, K1R12-AGP-RW, K1R12-AGP-RI at 4×IC50 dilution in medium without serum and incubated at 37° C. for different time points (60 min,120 min,240 min). RPMI medium without peptide treated for 24 hr which was used as a negative control. Supernatants (S) were collected and centrifuged at 1,500 rcf for 5 minutes. Cell lysates (L) use 500 μL Trypsin-EDTA harvested after centrifuged at 750 g for 5 minutes and washing lysate twice with PBS. And addition 150 μL RIPA and protease inhibitor blended buffer, then centrifugation same condition with supernatant(S). Sonication with 5 cycle number, time on or off 30 sec, and centrifugation for 10 minutes, 1400 g at 4° C., thereafter lysed using a 6× Sample buffer, 0.1M DTT (Sigma), and water. Protein concentrations of cell extracts were determined by Bradford reagent. Both supernatants and lysate were boiled in 80° C. 10 minutes and resolved by 12% sodium dodecyl sulfate-polyacrylamide gel electrophoresis (SDS-PAGE), and then electro transferred to a polyvinylidene difluoride (PVDF) membrane (Millipore). The membrane was blocked in 5% skimmed milk and incubated with the HMGB1 antibody (rabbit, polyclonal, Abcam ab 18256). The membrane was then rinsed several times with TB ST, incubated with horseradish peroxidase (HRP)-conjugated secondary antibody (Abcam ab6721). The signals were visualized by enhanced chemiluminescence (ECL) and recorded by a detected system (Image Quant LAS 4000mini).
In general terms: Immunoblotting shows a protein as a band on a membrane.

Data set [11] has the same test system. Briefly: Extracellular cytochrome c release (ELISA). The settings on record: 4×IC50 (6.452 μM). The data set is classed as cell-based. On the procedure:
FIG. 5 depict that release of mitochondria DAMPs Cytochrome c was detected by Elisa kit. Human non-small cell lung cancer cell A549 administrated with 6.452 μM (4×IC50) of K1R12-AGP-RW for different time period (30 min, 60 min, 90 min, 120 min, […]). Data are presented as means ±SEM, ***p<0.005, **p<0.01, versus the control group.
The ELISA kit for detection of cytochrome c was obtained from the R&D System (Minneapolis, MN, USA). Before the experiment, prepare a buffer solution or reagent from the kit. Seed cancer cells 1×10^5 in 96 well incubated 24 hours. After 24 hours, substitute with 4×IC50 K1R12-AGP-RW dilutions in medium, and incubate designated time points (30 min, 60 min, 90 min, 120 min). Following the supernatant was centrifuged at 16000 xg for 10 minutes. Add 50 μL supernatant and 75 μL of cytochrome c conjugate to each well. Then, add 50 μL of standard, control, or sample per well. Mix by tapping the plate frame for 1 minute. Cover with the adhesive strip provided. Incubate for 2 hours at room temperature. A plate layout is provided to record standards and samples assayed. Then use the wash buffer washed 5 times with 400 μL. The last wash removes any remaining Wash Buffer by decanting. […] Detection the cytochrome c at absorbance 450 nm using a microplate reader (Sunrise TM, TECAN, Switzerland).

The subject of another data set is A549 cell. Briefly: Killing kinetics (MTT time course). In kind it is cell-based, human. As to conditions: 4×IC50 (6.452 μM) vs 2×IC50 (3.226 μM), within 240 minutes. The method, then: To evaluate the cytotoxic activity and time course against the A549 cell, two different concentrations of K1R12-AGP-RW 2×IC50 (3.226 μM), 4×IC50 (6.452 μM) were used. Cells were seeded as described as MTT assay, after 24 hours culture, cell were incubated with 2×IC50 and 4×IC50 peptide solution for 60 minutes, 120 minutes, 180 minutes, 240 minutes. Further incubated in 10% MTT solution for an additional 4 hours. Remove MTT solution and Dimethyl Sulfoxide (DMSO, D4540, Sigma-Aldrich) was added to formazan crystal solubilization. Using a microplate reader (Sunrise TM, TECAN, Switzerland) detecting the absorbance at 570 nm. The experiments were repeated three times independently.

Take “Ac-KRIVQRIKDFLRAGPIKDFLR-NH2 [SEQ ID NO: 5, Ac-KRIVQRIKDFLR-AGP-IKDFLR-NH2]”: in data set [1], the “activity against oral squamous cell carcinoma cell line C9 (in words)” value was “weak”. In addition, the IC50 in data set [1] was determined as 25.3 µM; in data set [2], 11.5 µM; in data set [4], 10.5 µM; in data set [6], 11.9 µM; in data set [7], 6.26 µM. For the same substance, the IC50 at 24 h in data set [3] came out at 13.5 µM. Further, the anticancer activity spectrum entry in data set [5] (human lung cancer and oral squamous cell carcinoma cell lines, MTT) is on record as “broad-spectrum anticancer activity”. Also, the “efficiency to the human lung cancer cell line” value in data set [5] is given as “good efficiency”.
As to “Ac-KRIVQRIKDFLRAGPRRLVRI-NH2 [SEQ ID NO: 7, Ac-KRIVQRIKDFLR-AGP-RRLVRI-NH2]”, the “activity against oral squamous cell carcinoma cell line C9 (in words)” value in [1] is given as “weak”. The IC50 in data set [1] was 30.4 µM; in data set [2], 11.2 µM; in [4] it was 16.8 µM; in data set [6], 13.7 µM; in [7], 3.86 µM. Moreover, in [3], the IC50 at 24 h turned out to be 10.4 µM. Also, the “efficiency to the human lung cancer cell line” value in data set [5] is “good efficiency”.
As to “Ac-KRIVQRIKDFLRAGPRRWWRW-NH2 [SEQ ID NO: 6, Ac-KRIVQRIKDFLR-AGP-RRWWRW-NH2]”, the ATP secretion entry in [8] (after 30 minutes, with time increased) is “reduced”; in data set [8] (within 30 minutes), “higher level”. Besides, in data set [9], the “ROS release versus untreated cell” value is listed as “significant increase”. For the same substance, the IC50 in [1] was determined as 4.41 µM; in [2], 4.56 µM; in [4], 5.42 µM; in data set [6], 10.9 µM; in [7] it was 1.61 µM. Further, the IC50 at 24 h in [3] was found to be 11.1 µM. Besides, the “HMGB1 in cell lysate (L)” value in data set [10] (60, 120, 240 minutes, time-dependent) is listed as “reduce”. Also, the “HMGB1 in supernatant (S)” value was “slight increase” in [10] (after 120 minutes) and “complete release into the supernatant(S)” in data set [10] (after 240 minutes). Further, the cytochrome c release result in [11] (120 minutes) was “release at a certain level and keep stabilize”. Besides, the “cytochrome c release versus untreated cell” value in data set [11] (240 minutes) is on record as “significant increase”. The “killing kinetics, 4×IC50 versus 2×IC50” value with A549 cell was “more rapid kill cancer cells”. The “inhibition of A549 compared with the other cancer cells” value in data set [7] (MTT) is “more effective”.
